This note sets out measurements from patent US9174974B2, “Macrocyclic factor VIIa inhibitors” (BRISTOL-MYERS SQUIBB COMPANY, priority 2012, dated 2015).

The target in one experiment is human FVIIa (Homo sapiens (Human), UniProt P08709). Description: FVIIa Ki (37° C.), FVIIa-Xase assay. The class given is biochemical.
The target in another experiment is tissue kallikrein (HK1) (Homo sapiens (Human), UniProt P06870). As to the kind of experiment: Tissue kallikrein-1 (HK1) Ki, fluorogenic substrate assay. The class given is biochemical. The settings on record: 37° C.
tissue kallikrein (HK1), sequence (P06870 25-262): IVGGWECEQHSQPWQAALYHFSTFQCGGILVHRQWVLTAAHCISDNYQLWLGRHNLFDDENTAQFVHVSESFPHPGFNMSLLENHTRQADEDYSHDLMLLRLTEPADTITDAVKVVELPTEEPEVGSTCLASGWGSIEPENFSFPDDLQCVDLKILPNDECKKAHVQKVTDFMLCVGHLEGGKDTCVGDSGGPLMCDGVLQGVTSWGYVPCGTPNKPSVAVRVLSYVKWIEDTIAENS

human FVIIa, sequence (P08709 61-212): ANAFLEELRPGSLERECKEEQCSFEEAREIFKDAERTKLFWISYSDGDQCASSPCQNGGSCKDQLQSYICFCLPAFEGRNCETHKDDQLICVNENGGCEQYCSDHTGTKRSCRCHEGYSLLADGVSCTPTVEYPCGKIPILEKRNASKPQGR
human FVIIa, sequence (P08709 213-466): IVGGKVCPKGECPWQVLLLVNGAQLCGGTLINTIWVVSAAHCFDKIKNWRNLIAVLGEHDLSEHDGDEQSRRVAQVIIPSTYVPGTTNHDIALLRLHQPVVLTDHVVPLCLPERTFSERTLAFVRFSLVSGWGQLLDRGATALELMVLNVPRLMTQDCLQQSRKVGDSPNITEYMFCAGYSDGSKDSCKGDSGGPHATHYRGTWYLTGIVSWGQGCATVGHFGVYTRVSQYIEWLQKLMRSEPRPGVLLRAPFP
human FVIIa, sequence (P13726 33-295 partner): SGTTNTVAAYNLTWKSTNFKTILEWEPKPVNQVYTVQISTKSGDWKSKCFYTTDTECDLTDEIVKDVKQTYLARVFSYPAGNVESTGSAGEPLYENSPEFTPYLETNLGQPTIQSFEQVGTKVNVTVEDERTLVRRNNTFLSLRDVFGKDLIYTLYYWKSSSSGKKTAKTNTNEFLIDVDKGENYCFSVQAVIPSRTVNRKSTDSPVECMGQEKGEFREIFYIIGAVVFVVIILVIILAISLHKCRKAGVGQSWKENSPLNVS

Regarding `Cc1cc2ccc1[C@@H](C)COC(=O)Nc1cc(F)c(S(=O)(=O)C(C)C)c(c1)CN(C)C(=O)[C@@H]2Nc1cc(F)c2c(N)nccc2c1.O=C(O)C(F)(F)F` [Example 20, (2R,15R)-2-[(1-Amino-8-fluoroisoquinolin-6-yl)amino]-8-fluoro-4,15,17-trimethyl-7-(propane-2-sulfonyl)-13-oxa-4,11-diazatricyclo[14.2.2.1^6,10]henicosa-1(18),6,8,10 (21),16,19-hexaene-3,12-dione; trifluoroacetic acid], the Ki at human FVIIa (read-out: FVIIa Ki, nM 37° C.) turned out to be 0.36 nM; on tissue kallikrein (HK1), 120 nM. In addition, the “Ki(HK1)/Ki(FVIIa)” value on human FVIIa (selectivity ratio, tissue kallikrein (HK1) vs FVIIa) came to 333.

A word on the Ki: it is a dissociation constant, usually derived from enzyme kinetics or from competition with a known ligand.
